According to patent US20240425479A1, “HALO-SUBSTITUTED AMINO AZA-HETEROARYL COMPOUNDS AS INHIBITORS OF THE HAEMATOPOIETIC PROGENITOR KINASE 1 (HPK1)” (priority 2021, published 2024):

Target: T1, Recombinant (1-346) HPK1 (h) (Homo sapiens, UniProt Q92918)
T1 construct: Recombinant (1-346) HPK1 (h) is incubated with 8 mM MOPS pH 7.0
T1 sequence (Q92918 1-346): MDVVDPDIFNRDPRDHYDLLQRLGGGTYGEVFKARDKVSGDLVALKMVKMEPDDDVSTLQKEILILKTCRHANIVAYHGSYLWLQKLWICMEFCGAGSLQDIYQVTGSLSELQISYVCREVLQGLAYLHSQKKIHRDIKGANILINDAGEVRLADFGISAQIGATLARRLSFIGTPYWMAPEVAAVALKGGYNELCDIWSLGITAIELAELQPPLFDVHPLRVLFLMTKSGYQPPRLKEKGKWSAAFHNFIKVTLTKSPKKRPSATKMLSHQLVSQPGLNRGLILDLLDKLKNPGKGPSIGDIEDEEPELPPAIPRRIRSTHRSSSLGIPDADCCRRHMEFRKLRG
Assay: HPK1 human STE kinase enzymatic radiometric assay
Type: biochemical
Conditions: read-out: HPK1 IC50 nM Range
Method in brief: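 Recombinant HPK1 (1-346) incubated 40 min at RT with 0.33 mg/mL myelin basic protein and [gamma-33P]-ATP in 8 mM MOPS pH 7.0, 0.2 mM EDTA, 10 mM Mg acetate; reaction started with Mg/ATP. Stopped with 0.5% phosphoric acid, spotted on P30 filtermat, washed, scintillation counted. Compounds tested as 9-point 3-fold dilutions.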

| Compound | IC50 [nM] |
| --- | --- |
| Cc1c[nH]c(=O)c2ccc(-c3nc(-c4cccc(CN(C)C)c4)c(F)nc3N)cc12 [Example I-280, 6-(3-amino-6-(3-((dimethylamino)methyl)phenyl)-5-fluoropyrazin-2-yl)-4-methylisoquinolin-1(2H)-one] | 11 to 100 |
| Cc1c[nH]c(=O)c2ccc(-c3nc(-c4ccc5c(c4)[C@H](N(C)C)CO5)c(F)nc3N)cc12 [Example I-284, (S)-6-(3-amino-6-(3-(dimethylamino)-2,3-dihydrobenzofuran-5-yl)-5-fluoropyrazin-2-yl)-4-methylisoquinolin-1(2H)-one] | 11 to 100 |
| Cc1nc2cc(-c3nc(-c4ccc(N5CCN(C6CCC6)CC5)cc4)c(F)nc3N)ccc2c(=O)[nH]1 [Example I-76, 7-(3-amino-6-(4-(4-cyclobutylpiperazin-1-yl)phenyl)-5-fluoropyrazin-2-yl)-2-methylquinazolin-4(3H)-one] | 11 to 100 |
| CN(C)Cc1cc(-c2nc(-c3ccc4c(=O)[nH]cc(F)c4c3)c(N)nc2F)ccc1OC(F)F [Example I-270, 6-(3-amino-6-(4-(difluoromethoxy)-3-((dimethylamino)methyl)phenyl)-5-fluoropyrazin-2-yl)-4-fluoroisoquinolin-1(2H)-one] | 0.1 to 10 |
| CCN(C)Cc1cc(-c2nc(-c3ccc4c(=O)[nH]cc(C)c4c3)c(N)nc2F)ccc1OC [Example I-301, 6-(3-amino-6-(3-((ethyl(methyl)amino)methyl)-4-methoxyphenyl)-5-fluoropyrazin-2-yl)-4-methylisoquinolin-1(2H)-one] | 11 to 100 |
| Cc1nc2cc(-c3nc(-c4ccc(N5CCN(CC6CC6)CC5)cc4)c(F)nc3N)ccc2c(=O)[nH]1 [Example I-79, 7-(3-amino-6-(4-(4-(cyclopropylmethyl)piperazin-1-yl)phenyl)-5-fluoropyrazin-2-yl)-2-methylquinazolin-4(3H)-one] | 101 to 1000 |
| C[C@@H]1CN(c2ccc(-c3nc(-c4ccc5c(c4)CCNC5=O)c(N)nc3F)cc2)C[C@H](C)N1C [Example I-57, 6-(3-amino-5-fluoro-6-(4-((3R,5S)-3,4,5-trimethylpiperazin-1-yl)phenyl)pyrazin-2-yl)-3,4-dihydroisoquinolin-1(2H)-one] | 0.1 to 10 |
| CC1NC(=O)c2c(F)cc(-c3nc(-c4ccc([C@]56C[C@H]5CN(C5CCC5)C6)cc4)c(F)nc3N)cc2C1(F)F (stereo partly drawn) [Example I-195, 6-(3-amino-6-(4-((1S,5R)-3-cyclobutyl-3-azabicyclo[3.1.0]hexan-1-yl)phenyl)-5-fluoropyrazin-2-yl)-4,4,8-trifluoro-3-methyl-3,4-dihydroisoquinolin-1(2H)-one] | 11 to 100 |
| CN(C)[C@@H]1COc2ccc(-c3nc(-c4cc5c(cc4F)C(=O)NCC5)c(N)nc3F)cc21 [Example I-255, (S)-6-(3-amino-6-(3-(dimethylamino)-2,3-dihydrobenzofuran-5-yl)-5-fluoropyrazin-2-yl)-7-fluoro-3,4-dihydroisoquinolin-1(2H)-one] | 11 to 100 |
| CCN(C)Cc1cc(-c2nc(-c3ccc4c(=O)[nH]cc(C)c4c3)c(N)nc2F)cc(C)c1OC [Example I-299, 6-(3-amino-6-(3-((ethyl(methyl)amino)methyl)-4-methoxy-5-methylphenyl)-5-fluoropyrazin-2-yl)-4-methylisoquinolin-1(2H)-one] | 11 to 100 |
| C[C@@H]1CN(c2ccc(-c3nc(-c4ccc5c(c4)CCNC5=O)c(N)nc3F)cc2CN(C)C)C[C@H](C)O1 [Example I-198, 6-(3-amino-6-(3-((dimethylamino)methyl)-4-((2R,6S)-2,6-dimethylmorpholino)phenyl)-5-fluoropyrazin-2-yl)-3,4-dihydroisoquinolin-1(2H)-one] | 0.1 to 10 |

Next, values leading:

| IC50 [nM] | Compound |
| --- | --- |
| 0.1 to 10 | Nc1nc(F)c(-c2ccc(C3CCOCC3)c(CN3CCCC3)c2)nc1-c1ccc2c(=O)[nH]cc(F)c2c1 [Example I-207, 6-(3-amino-5-fluoro-6-(3-(pyrrolidin-1-ylmethyl)-4-(tetrahydro-2H-pyran-4-yl)phenyl)pyrazin-2-yl)-4-fluoroisoquinolin-1(2H)-one] |
| 0.1 to 10 | CN(C)Cc1cc(-c2nc(-c3ccc4c(c3)CCNC4=O)c(N)nc2F)ccc1OCC1CCOCC1 [Example I-178, 6-(3-amino-6-(3-((dimethylamino)methyl)-4-((tetrahydro-2H-pyran-4-yl)methoxy)phenyl)-5-fluoropyrazin-2-yl)-3,4-dihydroisoquinolin-1(2H)-one] |
| 0.1 to 10 | Cc1[nH]c(=O)c2c(F)cc(-c3nc(-c4ccc(N5CCOCC5)c(CN(C)C)c4)c(F)nc3N)cc2c1F [Example I-116, 6-(3-amino-6-(3-((dimethylamino)methyl)-4-morpholinophenyl)-5-fluoropyrazin-2-yl)-4,8-difluoro-3-methylisoquinolin-1(2H)-one] |
| 0.1 to 10 | Nc1nc(F)c(-c2ccc(N3CCN(CCCC(F)F)CC3)cc2)nc1-c1ccc2c(c1)CCNC2=O [Example I-68, 6-(3-amino-6-(4-(4-(4,4-difluorobutyl)piperazin-1-yl)phenyl)-5-fluoropyrazin-2-yl)-3,4-dihydroisoquinolin-1(2H)-one] |
| 11 to 100 | COC1CCN(Cc2cc(-c3nc(-c4cc5c(cc4F)C(=O)NCC5)c(N)nc3F)ccc2C2CCOCC2)CC1 [Example I-132, 6-(3-amino-5-fluoro-6-(3-((4-methoxypiperidin-1-yl)methyl)-4-(tetrahydro-2H-pyran-4-yl)phenyl)pyrazin-2-yl)-7-fluoro-3,4-dihydroisoquinolin-1(2H)-one] |
| 0.1 to 10 | C[C@H]1CN(c2ccc(-c3nc(-c4cc5c(cc4F)C(=O)NCC5)c(N)nc3F)cc2CN2CCC2)CCO1 [Example I-215, (S)-6-(3-amino-6-(3-(azetidin-1-ylmethyl)-4-(2-methylmorpholino)phenyl)-5-fluoropyrazin-2-yl)-7-fluoro-3,4-dihydroisoquinolin-1(2H)-one] |
| 0.1 to 10 | CN(C)Cc1cc(-c2nc(-c3ccc4c(c3)C3(CC3)CNC4=O)c(N)nc2F)ccc1N1CCOCC1 [Example I-105, 6′-(3-amino-6-(3-((dimethylamino)methyl)-4-morpholinophenyl)-5-fluoropyrazin-2-yl)-2′,3′-dihydro-1′H-spiro[cyclopropane-1,4′-isoquinolin]-1′-one] |
| 11 to 100 | Nc1nc(F)c(-c2ccc(N3CCOCC3)c(CN3CCC3)c2F)nc1-c1cc(F)c2c(c1)CCNC2=O [Example I-245, 6-(3-amino-6-(3-(azetidin-1-ylmethyl)-2-fluoro-4-morpholinophenyl)-5-fluoropyrazin-2-yl)-8-fluoro-3,4-dihydroisoquinolin-1(2H)-one] |
| 0.1 to 10 | Nc1nc(F)c(-c2ccc(N3CCN(CCC(F)F)CC3)cc2)nc1-c1cc(F)c2c(c1)CCNC2=O [Example I-82, 6-(3-amino-6-(4-(4-(3,3-difluoropropyl)piperazin-1-yl)phenyl)-5-fluoropyrazin-2-yl)-8-fluoro-3,4-dihydroisoquinolin-1(2H)-one] |
| 0.1 to 10 | Nc1nc(F)c(-c2ccc(N3CCOCC3)c(CN3CCCC3)c2)nc1-c1cc(F)c2c(c1)CCNC2=O [Example I-112, 6-(3-amino-5-fluoro-6-(4-morpholino-3-(pyrrolidin-1-ylmethyl)phenyl)pyrazin-2-yl)-8-fluoro-3,4-dihydroisoquinolin-1(2H)-one] |
| 101 to 1000 | CN(C)Cc1cc(-c2nc(-c3ccc4c(c3)CCNC4=O)c(N)nc2F)c(F)cc1N1CCOCC1 [Example I-258, 6-(3-amino-6-(5-((dimethylamino)methyl)-2-fluoro-4-morpholinophenyl)-5-fluoropyrazin-2-yl)-3,4-dihydroisoquinolin-1(2H)-one] |
| 0.1 to 10 | C[C@@H]1CN(C)CCN1c1ccc(-c2nc(-c3cc4c(cc3F)C(=O)NCC4)c(N)nc2F)cc1 [Example I-53, (R)-6-(3-amino-6-(4-(2,4-dimethylpiperazin-1-yl)phenyl)-5-fluoropyrazin-2-yl)-7-fluoro-3,4-dihydroisoquinolin-1(2H)-one] |
| 0.1 to 10 | Cc1[nH]c(=O)c2c(F)cc(-c3nc(-c4ccc(N5CCN(C(C)C)CC5)cc4)c(F)nc3N)cc2c1Cl [Example I-102, 6-(3-amino-5-fluoro-6-(4-(4-isopropylpiperazin-1-yl)phenyl)pyrazin-2-yl)-4-chloro-8-fluoro-3-methylisoquinolin-1(2H)-one] |
| 11 to 100 | Cc1nc2cc(-c3nc(-c4ccc(N5CCOCC5)c(CN(C)C)c4)c(F)nc3N)ccc2c(=O)[nH]1 [Example I-77, 7-(3-amino-6-(3-((dimethylamino)methyl)-4-morpholinophenyl)-5-fluoropyrazin-2-yl)-2-methylquinazolin-4(3H)-one] |
| 11 to 100 | CN(C)Cc1c(N2CCOCC2)ccc(-c2nc(-c3cc(F)c4c(c3)CCNC4=O)c(N)nc2F)c1F [Example I-242, 6-(3-amino-6-(3-((dimethylamino)methyl)-2-fluoro-4-morpholinophenyl)-5-fluoropyrazin-2-yl)-8-fluoro-3,4-dihydroisoquinolin-1(2H)-one] |
| 11 to 100 | CN(C)Cc1c(N2CCOCC2)ccc(-c2nc(-c3ccc4c(c3)CCNC4=O)c(N)nc2F)c1F [Example I-240] |
| 101 to 1000 | Cc1c[nH]c(=O)c2ccc(-c3nc(-c4cc(CN(C)C)c(N5CCOCC5)c(F)c4F)c(F)nc3N)cc12 [Example I-264, 6-(3-amino-6-(5-((dimethylamino)methyl)-2,3-difluoro-4-morpholinophenyl)-5-fluoropyrazin-2-yl)-4-methylisoquinolin-1(2H)-one] |
